# Assay results: patent publication US9850283B2, “Macrocyclic inhibitors of the PD-1/PD-L1 and CD80(B7-1)/PD-L1 protein/protein interactions” (BRISTOL-MYERS SQUIBB COMPANY, priority 2013, dated 2017)
# Where two headings read alike, the source gives them in different places. Starred links: 1 amine or outer side, 2 acyl side, 3 side chain; linkers in the order of their positions; H or OH if unused. Positions of bridges follow the written chain, without caps; N, C: chain ends. Non-standard residues stand in square brackets, D forms with d. Residues, ends and D or L forms follow the SMILES beside them. ξ: configuration not given here. Phe(3,4,5-F3) = N[C@@H](Cc1cc(F)c(F)c(F)c1)C(=O)O; ξPro(4S-NH2) = O=C(C1C[C@H](N[*:3])CN1[*:1])[*:2]; Phe(3,5-F2) = N[C@@H](Cc1cc(F)cc(F)c1)C(=O)O; Phe(4-CH2NH2) = NCc1ccc(C[C@H](N)C(=O)O)cc1; Bip = N[C@@H](Cc1ccc(-c2ccccc2)cc1)C(=O)O; Bta = N[C@@H](Cc1csc2ccccc12)C(=O)O; Hyp = O=C(O)[C@@H]1C[C@@H](O)CN1; NMeF = CN[C@@H](Cc1ccccc1)C(=O)O; ξBta = NC(Cc1csc2ccccc12)C(=O)O; NMeNle = CCCC[C@H](NC)C(=O)O; NMeM = CN[C@@H](CCSC)C(=O)O; ξR = N=C(N)NCCCC(N)C(=O)O; NMeA = CN[C@@H](C)C(=O)O; Nle = CCCC[C@H](N)C(=O)O; Dab = NCC[C@H](N)C(=O)O; Dap = NC[C@H](N)C(=O)O; ξP = O=C(O)C1CCCN1; ξC = NC(CS)C(=O)O; ξS = NC(CO)C(=O)O; Sar = CNCC(=O)O
# Legend:
# Human PD-L1/PD-1 = biological target: T1, Human PD-L1/PD-1 (Homo sapiens, UniProt Q9NZQ7); assay: HTRF PD-1-Ig/PD-L1-His binding assay (human PD-L1); details: cluster symbol; read-out: HTRF IC50 cluster
# T1 construct: made in house; host or cells: HEK293T
# In short: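 Soluble PD-1-Ig binding to PD-L1-His measured by HTRF in dPBS with 0.1% BSA and 0.05% Tween-20. Detection used europium cryptate anti-Ig antibody (1 nM final) and APC anti-His antibody (20 nM final) added on top of the binding reaction.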
# [1] = biological target: T2, LK35.2-hPD-L1 cells / PE-labeled PD-1-Ig (Homo sapiens, UniProt Q9NZQ7); assay: LK35.2-hPD-L1 cell binding high-content screening assay; assay type: cell-based; details: cluster symbol, read-out: CBA IC50 cluster
# T2 construct: expressed in transfected cells; host or cells: LK35.2 mouse B cell line
# In short: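 Binding of PE-conjugated human PD-1-Ig (1 nM final) to human PD-L1 stably expressed on a mouse B-cell line (LK35.2) was measured by high-content imaging after washes. Compound and labeled PD-1-Ig were co-incubated 1 h at 37 °C with cells in RPMI/10% FCS.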
# [2] = cell line of CBA not given (LK35.2-hPD-L1 or 293T-hPD-L1)
# [3] = cell binding assay, cell line not given
# T1 sequence (Q9NZQ7 with tags, fused parts or gaps): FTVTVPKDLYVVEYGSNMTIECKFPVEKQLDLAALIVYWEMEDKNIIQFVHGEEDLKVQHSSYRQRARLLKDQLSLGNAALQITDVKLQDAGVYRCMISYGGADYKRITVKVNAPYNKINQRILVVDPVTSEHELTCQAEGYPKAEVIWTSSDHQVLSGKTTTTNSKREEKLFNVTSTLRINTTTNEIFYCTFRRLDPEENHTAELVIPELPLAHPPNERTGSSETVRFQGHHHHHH
# T2 sequence (Q9NZQ7 19-290): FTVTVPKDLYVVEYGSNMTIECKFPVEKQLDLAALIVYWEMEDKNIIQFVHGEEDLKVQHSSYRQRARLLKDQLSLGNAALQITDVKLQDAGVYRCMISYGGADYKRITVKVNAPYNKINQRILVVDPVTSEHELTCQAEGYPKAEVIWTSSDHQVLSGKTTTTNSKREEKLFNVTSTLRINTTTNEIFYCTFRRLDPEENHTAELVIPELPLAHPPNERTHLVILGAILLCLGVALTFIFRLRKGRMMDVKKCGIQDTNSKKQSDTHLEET
Compound,IC50 (Human PD-L1/PD-1) [nM],"IC50 [1, 2] [nM]","IC50 [1, 3] [nM]"
CCCC[C@H]1C(=O)N(C)CC(=O)N[C@@H](CC(=O)O)C(=O)N[C@@H](C(C)C)C(=O)N(C)[C@@H](Cc2ccccc2)C(=O)N[C@@H](Cc2ccc(O)cc2)C(=O)N(C)CC(=O)N[C@@H](Cc2c[nH]c3ccccc23)C(=O)N[C@@H](Cc2ccc(O)cc2)C(=O)N[C@@H](CC(C)C)C(=O)N[C@H](C(=O)NCC(N)=O)CC=CC(=O)N[C@@H](Cc2ccccc2)C(=O)N(C)[C@@H](Cc2ccccc2)C(=O)N1C [Example 3160],> 30.5,> 74.3,
CCCC[C@H]1C(=O)N[C@@H](C)C(=O)NC(C(=O)NCC(N)=O)CSCC(=O)N[C@@H](Cc2ccc(O)cc2)C(=O)N(C)[C@@H](C)C(=O)N[C@@H](CC(N)=O)C(=O)N2CCC[C@H]2C(=O)N[C@@H](CN)C(=O)N[C@@H](CC(C)C)C(=O)N2C[C@H](O)C[C@H]2C(=O)N[C@@H](Cc2c[nH]c3ccccc23)C(=O)N[C@@H](CO)C(=O)N[C@@H](Cc2csc3ccccc23)C(=O)N(C)[C@@H](CCSC)C(=O)N1C (stereo partly shown) [Example 9096] ({CH2CO}-Y[NMeA]NP[Dap]L[Hyp]WS[Bta][NMeM][NMeNle]A[ξC]G-NH2; thioether N-14),0.385 to 6.74,,0.158 to 4.71
CCCC[C@H]1C(=O)N(C)[C@@H](CCCC)C(=O)N[C@@H](CCN)C(=O)N[C@H](C(=O)NCC(N)=O)CSCC(=O)N[C@@H](Cc2ccc(O)cc2)C(=O)N(C)[C@@H](C)C(=O)N[C@@H](CC(N)=O)C(=O)N2CCC[C@H]2C(=O)N[C@@H](Cc2cnc[nH]2)C(=O)N[C@@H](CCC(=O)O)C(=O)N2C[C@H](O)C[C@H]2C(=O)N[C@@H](Cc2csc3ccccc23)C(=O)N[C@@H](CCN)C(=O)N[C@@H](Cc2c[nH]c3ccccc23)C(=O)N1C [Example 5055] ({CH2CO}-Y[NMeA]NPHE[Hyp][Bta][Dab]W[NMeNle][NMeNle][Dab]CG-NH2; thioether N-14),> 30.5,,> 74.3
CCCC[C@H]1C(=O)N(C)[C@@H](CCCC)C(=O)N[C@@H](CCCNC(=N)N)C(=O)N[C@H](C(=O)NCC(N)=O)CSCC(=O)N[C@@H](Cc2ccc(O)cc2)C(=O)N(C)[C@@H](C)C(=O)N[C@@H](CC(N)=O)C(=O)N2C[C@@H](N)CC2C(=O)N[C@@H](Cc2cnc[nH]2)C(=O)N[C@@H](CC(C)C)C(=O)N2CCC[C@H]2C(=O)N[C@@H](Cc2c[nH]c3ccccc23)C(=O)N[C@@H](CO)C(=O)NC(Cc2csc3ccccc23)C(=O)N1C (stereo partly drawn) [Example 1046] ({CH2CO}-Y[NMeA]N[ξPro(4S-NH2)]HLPWS[ξBta][NMeNle][NMeNle]RCG-NH2; thioether N-14),6.76 to 30.3,4.78 to 72.9,
CCCC[C@H]1C(=O)N(C)[C@@H](CCCC)C(=O)N[C@@H](C)C(=O)N[C@H](C(N)=O)CSCC(=O)N[C@@H](Cc2ccc(O)cc2)C(=O)N(C)[C@@H](C)C(=O)N[C@@H](CCC(=O)O)C(=O)N2CCC[C@H]2C(=O)N[C@@H](CN)C(=O)N[C@@H](CC(C)C)C(=O)N2C[C@H](O)C[C@H]2C(=O)N[C@@H](Cc2c[nH]c3ccccc23)C(=O)N[C@@H](CO)C(=O)N[C@@H](Cc2c[nH]c3ccccc23)C(=O)N1C [Example 1172] ({CH2CO}-Y[NMeA]EP[Dap]L[Hyp]WSW[NMeNle][NMeNle]AC-NH2; thioether N-14),0.385 to 6.74,4.78 to 72.9,
"CCCC[C@H]1C(=O)N2CCC[C@@H]2C(=O)N[C@@H](CO)C(=O)N[C@@H](C(C)C)C(=O)N(C)[C@@H](Cc2ccccc2)C(=O)N[C@@H](Cc2ccc(CN)cc2)C(=O)N2CCC[C@@H]2C(=O)N[C@@H](Cc2c[nH]c3ccccc23)C(=O)N[C@@H](Cc2ccc(O)cc2)C(=O)N[C@@H](CCCCN)C(=O)N[C@H](C(=O)NCC(N)=O)CSCC(=O)N[C@@H](Cc2cc(F)c(F)c(F)c2)C(=O)N(C)[C@@H](Cc2ccccc2)C(=O)N1C [Example 3199] ({CH2CO}-[Phe(3,4,5-F3)][NMeF][NMeNle][dP]SV[NMeF][Phe(4-CH2NH2)][dP]WYKCG-NH2; thioether N-13)",6.76 to 30.3,0.158 to 4.71,
CCCC[C@H]1C(=O)N(C)[C@@H](CCCC)C(=O)NC(CCCNC(=N)N)C(=O)NC(C(=O)NCC(N)=O)CSCC(=O)N[C@@H](Cc2ccccc2)C(=O)N(C)[C@@H](C)C(=O)N[C@@H](CC(N)=O)C(=O)N2CCCC2C(=O)N[C@@H](Cc2cnc[nH]2)C(=O)N[C@@H](CC(C)C)C(=O)N(C)CC(=O)N[C@@H](Cc2c[nH]c3ccccc23)C(=O)NC(CO)C(=O)N[C@@H](Cc2ccc(-c3ccccc3)cc2)C(=O)N1C (stereo partly shown) [Example 1028] ({CH2CO}-F[NMeA]N[ξP]HL[Sar]W[ξS][Bip][NMeNle][NMeNle][ξR][ξC]G-NH2; thioether N-14),> 30.5,> 74.3,
CCCC[C@H]1C(=O)N(C)[C@@H](CCCC)C(=O)N[C@@H](C)C(=O)N[C@H](C(=O)NCC(N)=O)CSCC(=O)N[C@@H](Cc2ccc(O)cc2)C(=O)N(C)[C@@H](C)C(=O)N[C@@H](CC(N)=O)C(=O)N2CCC[C@H]2C(=O)N[C@@H](Cc2cnc[nH]2)C(=O)N[C@@H](CC(C)C)C(=O)N2CCC[C@H]2C(=O)N[C@@H](Cc2c[nH]c3ccccc23)C(=O)N[C@@H](CO)C(=O)N[C@@H](Cc2csc3ccccc23)C(=O)N1C [Example 1049] ({CH2CO}-Y[NMeA]NPHLPWS[Bta][NMeNle][NMeNle]ACG-NH2; thioether N-14),6.76 to 30.3,0.158 to 4.71,
CCCC[C@H]1C(=O)N(C)[C@@H](CCCC)C(=O)N[C@@H](CCCNC(=N)N)C(=O)N[C@H](C(=O)NCC(N)=O)CSCC(=O)N[C@@H](Cc2ccccc2)C(=O)N(C)[C@@H](C)C(=O)N[C@@H](CC(N)=O)C(=O)N2CCC[C@H]2C(=O)N[C@@H](Cc2cnc[nH]2)C(=O)N[C@@H](CC(C)C)C(=O)N(C)CC(=O)N[C@@H](Cc2c[nH]c3ccccc23)C(=O)N[C@@H](Cc2cnc[nH]2)C(=O)N[C@@H](Cc2c[nH]c3ccccc23)C(=O)N1C [Example 1068] ({CH2CO}-F[NMeA]NPHL[Sar]WHW[NMeNle][NMeNle]RCG-NH2; thioether N-14),> 30.5,> 74.3,
"CCCC[C@H]1C(=O)N(C)[C@@H](CCCC)C(=O)N[C@@H](CCCNC(=N)N)C(=O)N[C@H](C(=O)NCC(N)=O)CSCC(=O)N[C@@H](Cc2cc(F)cc(F)c2)C(=O)N(C)[C@@H](C)C(=O)N[C@@H](CC(N)=O)C(=O)N2CCC[C@H]2C(=O)N[C@@H](CN)C(=O)N[C@@H](CC(C)C)C(=O)N2C[C@H](O)C[C@H]2C(=O)N[C@@H](Cc2c[nH]c3ccccc23)C(=O)N[C@@H](CO)C(=O)N[C@@H](Cc2c[nH]c3ccccc23)C(=O)N1C [Example 7043] ({CH2CO}-[Phe(3,5-F2)][NMeA]NP[Dap]L[Hyp]WSW[NMeNle][NMeNle]RCG-NH2; thioether N-14)",6.76 to 30.3,,4.78 to 72.9
CCCC[C@H]1C(=O)N[C@@H](C)C(=O)NC(C(=O)NCC(N)=O)CSCC(=O)N[C@@H](Cc2ccc(O)cc2)C(=O)N(C)[C@@H](C)C(=O)N[C@@H](CC(N)=O)C(=O)N2CCC[C@H]2C(=O)N[C@@H](CN)C(=O)N[C@@H](CC(C)C)C(=O)N2C[C@H](O)C[C@H]2C(=O)N[C@@H](Cc2c[nH]c3ccccc23)C(=O)N[C@@H](CO)C(=O)N[C@@H](Cc2c[nH]c3ccccc23)C(=O)N(C)[C@@H](CCSC)C(=O)N1C (stereo partly shown) [Example 9095],0.385 to 6.74,,4.78 to 72.9
CCCC[C@H]1C(=O)N(C)[C@@H](CCCC)C(=O)N[C@@H](CCN)C(=O)N[C@H](C(=O)NCC(N)=O)CSCC(=O)N[C@@H](Cc2ccc(O)cc2)C(=O)N(C)[C@@H](C)C(=O)N[C@@H](CC(N)=O)C(=O)N2CCC[C@H]2C(=O)N[C@@H](CN)C(=O)N[C@@H](CCC(N)=O)C(=O)N2C[C@H](O)C[C@H]2C(=O)N[C@@H](Cc2c[nH]c3ccccc23)C(=O)N[C@@H](CO)C(=O)N[C@@H](Cc2c[nH]c3ccccc23)C(=O)N1C [Example 5042] ({CH2CO}-Y[NMeA]NP[Dap]Q[Hyp]WSW[NMeNle][NMeNle][Dab]CG-NH2; thioether N-14),0.385 to 6.74,,0.158 to 4.71
CCCC[C@H]1C(=O)N(C)[C@@H](CCCC)C(=O)N[C@@H](CCC(=O)O)C(=O)N[C@H](C(=O)NCC(N)=O)CSCC(=O)N[C@@H](Cc2ccc(O)cc2)C(=O)N(C)[C@@H](C)C(=O)N[C@@H](CC(=O)O)C(=O)N2CCC[C@H]2C(=O)N[C@@H](Cc2c[nH]cn2)C(=O)N[C@@H](CCCCN)C(=O)N2C[C@H](O)C[C@H]2C(=O)N[C@@H](Cc2c[nH]c3ccccc23)C(=O)N[C@@H](CO)C(=O)N[C@@H](Cc2c[nH]c3ccccc23)C(=O)N1C [Example 5098] ({CH2CO}-Y[NMeA]DPHK[Hyp]WSW[NMeNle][NMeNle]ECG-NH2; thioether N-14),0.385 to 6.74,,4.78 to 72.9
CCCC[C@@H]1NC(=O)[C@H](CCCC)N(C)C(=O)[C@H](CCCC)N(C)C(=O)[C@H](Cc2c[nH]c3ccccc23)NC(=O)[C@H](CO)NC(=O)[C@H](Cc2c[nH]c3ccccc23)NC(=O)CN(C)C(=O)[C@H](CC(C)C)NC(=O)[C@H](Cc2cnc[nH]2)NC(=O)[C@@H]2CCCN2C(=O)[C@H](CC(N)=O)NC(=O)[C@H](C)N(C)C(=O)[C@H](Cc2ccccc2)NC(=O)CSC[C@@H](C(=O)NCC(N)=O)NC1=O [Example 1071] ({CH2CO}-F[NMeA]NPHL[Sar]WSW[NMeNle][NMeNle][Nle]CG-NH2; thioether N-14),> 30.5,> 74.3,
